Measured values as given in PubChem BioAssay AID485337 (Sanford-Burnham Center for Chemical Genomics, 2010).
Calls of active or inactive are those of the source. How the calls were made is not given here.

What follows are compounds tested against SUMO-conjugating enzyme UBC9 (Homo sapiens) (UniProt P63279) (assay: UBC9-dependent SUMO conjugation inhibition – biochemical, HTRF, set 2, SAR follow-up (AID 485337)). Settings: in vitro SUMOylation, HTRF read-out.
Chain of SUMO-conjugating enzyme UBC9 (Homo sapiens) (P63279 whole entry, looked up): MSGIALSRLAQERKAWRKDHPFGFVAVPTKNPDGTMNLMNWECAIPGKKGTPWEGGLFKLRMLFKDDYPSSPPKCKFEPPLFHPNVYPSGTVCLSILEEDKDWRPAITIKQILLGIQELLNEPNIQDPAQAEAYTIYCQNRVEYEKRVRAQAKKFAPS
With `COc1ccc2c(c1)C(NC(C)=O)C(=O)N2CC1COc2ccccc2O1` (centres undefined) the IC50 was > 100 µM (inactive).
With `N#Cc1c(NC(=O)c2ccccc2Cl)n(Cc2ccccc2)c2nc3ccccc3nc12` the IC50 was 12.2 µM.
`CCCCn1c(NC(=O)c2ccccc2)c(S(=O)(=O)c2ccc(C)cc2)c2nc3ccccc3nc21` was tested, and the IC50 was “inactive”.
For `CCCCn1c(NC(=O)c2ccco2)c(S(=O)(=O)c2ccc(C)cc2)c2nc3ccccc3nc21`, the IC50 was 12.5 µM.
With `COc1cc(/C=C2\C(=O)N(c3ccccc3)N=C2C)ccc1O` the IC50 was > 100 µM (inactive).
`Cc1cc(C)c2c(c1)C(=O)C(=O)N2CCN1CCOCC1` was tested, and the IC50 was > 100 µM (inactive).
In the case of `CCCCNC(=O)c1c(NC(=O)c2ccccc2)n(Cc2ccccc2)c2nc3ccccc3nc12`, the IC50 is reported as 30.6 µM.
For `CCCCn1c(N)c(S(=O)(=O)c2ccc(C)cc2)c2nc3ccccc3nc21`, the IC50 was 9.28 µM.
In the case of `CC(=O)NC1C(=O)N(CCN2CCOCC2)c2ccc(C)cc21` (centres undefined), the IC50 is reported as > 100 µM (inactive).
`COc1ccc2c(c1)C(=O)C(=O)N2CCN1CCOCC1` was tested, and the IC50 was > 100 µM (inactive).
In the case of `CCCCn1c(NC(=O)CC)c(S(=O)(=O)c2ccc(C)cc2)c2nc3ccccc3nc21`, the IC50 is reported as “inactive”.
`CCCCn1c(NC(=O)c2ccco2)c(C#N)c2nc3ccccc3nc21` gave an IC50 of 8.06 µM.
Work on `COc1ccc2c(c1)C(NC(C)=O)C(=O)N2CCN1CCOCC1` (centres undefined) yielded an IC50 of 6.06 µM.
Compound `CCCCn1c(NC(C)=O)c(C#N)c2nc3ccccc3nc21` has an IC50 of 3.39 µM.
`COc1ccc2c(c1)C(NC(C)=O)C(=O)N2CCc1ccccc1` (centres undefined) was tested, and the IC50 was > 100 µM (inactive).
In the case of `COc1cc(/C=C2\C(=O)N(c3ccccc3)N=C2C)ccc1OCc1ccccc1`, the IC50 is reported as > 100 µM (inactive).
For `CCCCCn1c(NC(=O)c2ccco2)c(C(=O)OCC)c2nc3ccccc3nc21`, the IC50 was 14.8 µM.
For `COCCNC(=O)c1c(NC(=O)c2ccccc2)n(Cc2ccccc2)c2nc3ccccc3nc12`, the IC50 was 13.4 µM.
Compound `N#Cc1c(NC(=O)c2ccccc2Cl)n(C2CCCCC2)c2nc3ccccc3nc12` has an IC50 of 23.1 µM.
`COCCn1c(NC(=O)c2ccc(Cl)cc2)c(S(=O)(=O)c2ccc(C)cc2)c2nc3ccccc3nc21` showed an IC50 of 78.8 µM.
`COc1ccc2c(c1)C(NC(C)=O)C(=O)N2CCOc1ccccc1` (centres undefined) was tested, and the IC50 was > 100 µM (inactive).
With `CCCN1C(=O)C(NC(C)=O)c2cc(OC)ccc21` (centres undefined) the IC50 was > 100 µM (inactive).
`S=c1[nH]nc(-c2cc(-c3ccccc3)n[nH]2)n1N=Cc1ccc(Br)s1` was tested, and the IC50 was “inactive”.
For `Nc1c(C(=O)NCc2ccco2)c2nc3ccccc3nc2n1Cc1ccccc1`, the IC50 was 31.1 µM.
With `COc1cc(/C=C2\C(=O)N(c3ccccc3)N=C2C)ccc1OC(=O)c1cccs1` the IC50 was > 100 µM (inactive).
`CCCCn1c(NC(=O)c2ccccc2)c(C#N)c2nc3ccccc3nc21` showed an IC50 of 16.4 µM.
Compound `CCCCn1c(NC(=O)c2ccccc2Cl)c(S(=O)(=O)c2ccccc2)c2nc3ccccc3nc21` has an IC50 of 37.6 µM.
`CCCCn1c(NC(=O)c2ccc(Cl)cc2)c(C#N)c2nc3ccccc3nc21` showed an IC50 of 22.6 µM.
In the case of `COc1ccc(CN2C(=O)C(NC(C)=O)c3ccccc32)cc1` (centres undefined), the IC50 is reported as > 100 µM (inactive).
